Assay results reported in ChEMBL document CHEMBL1201862, “PubChem BioAssay data set” (2004).
Calls of active or inactive are those of the source.

Legend:
[1] = biological target: SUMO-activating enzyme (Homo sapiens, UniProt Q9UBT2); experiment: SUMOylation inhibitor hit validation, confirmation, SUMOylation inhibitor project, biochemical, AlphaScreen (AID 2018); format: functional
[2] = biological target: T1, CAAX prenyl protease 2 (Saccharomyces cerevisiae S288c, UniProt Q03530); format: biochemical
T1 sequence (Q03530 whole entry): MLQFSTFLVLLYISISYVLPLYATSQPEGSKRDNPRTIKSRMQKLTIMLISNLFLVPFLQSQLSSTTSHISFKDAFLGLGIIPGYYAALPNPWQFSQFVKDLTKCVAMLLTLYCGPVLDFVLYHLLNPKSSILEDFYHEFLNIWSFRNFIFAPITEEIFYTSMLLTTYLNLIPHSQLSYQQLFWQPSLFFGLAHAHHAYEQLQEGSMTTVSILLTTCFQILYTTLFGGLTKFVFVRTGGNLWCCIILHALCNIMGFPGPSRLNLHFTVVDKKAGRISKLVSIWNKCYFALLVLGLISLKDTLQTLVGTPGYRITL

[3] = biological target: Trypsin (Sus scrofa, UniProt P00761); experiment: porcine trypsin inhibitors, dose response, selectivity assay for Rce1 protease inhibitor project, biochemical, quenched peptide fluorescence, cherry-pick (AID 488789)
Trypsin, sequence (P00761 whole entry): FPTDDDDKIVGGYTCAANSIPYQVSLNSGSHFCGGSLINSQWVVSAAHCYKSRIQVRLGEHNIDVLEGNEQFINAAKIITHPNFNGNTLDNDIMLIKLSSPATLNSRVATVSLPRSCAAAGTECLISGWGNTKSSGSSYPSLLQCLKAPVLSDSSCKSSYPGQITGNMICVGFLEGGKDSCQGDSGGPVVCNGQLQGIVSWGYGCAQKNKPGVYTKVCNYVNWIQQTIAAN

[4] = biological target: T2, Short transient receptor potential channel 4 (Mus musculus, UniProt Q9QUQ5); experiment: TRPC4 positive allosteric modulators, dose response, cell-based, HEK293 TRPC4/mu-opioid, Fluo-4 calcium, EC20 DAMGO (AID 434941); format: functional
T2 sequence (Q9QUQ5 whole entry): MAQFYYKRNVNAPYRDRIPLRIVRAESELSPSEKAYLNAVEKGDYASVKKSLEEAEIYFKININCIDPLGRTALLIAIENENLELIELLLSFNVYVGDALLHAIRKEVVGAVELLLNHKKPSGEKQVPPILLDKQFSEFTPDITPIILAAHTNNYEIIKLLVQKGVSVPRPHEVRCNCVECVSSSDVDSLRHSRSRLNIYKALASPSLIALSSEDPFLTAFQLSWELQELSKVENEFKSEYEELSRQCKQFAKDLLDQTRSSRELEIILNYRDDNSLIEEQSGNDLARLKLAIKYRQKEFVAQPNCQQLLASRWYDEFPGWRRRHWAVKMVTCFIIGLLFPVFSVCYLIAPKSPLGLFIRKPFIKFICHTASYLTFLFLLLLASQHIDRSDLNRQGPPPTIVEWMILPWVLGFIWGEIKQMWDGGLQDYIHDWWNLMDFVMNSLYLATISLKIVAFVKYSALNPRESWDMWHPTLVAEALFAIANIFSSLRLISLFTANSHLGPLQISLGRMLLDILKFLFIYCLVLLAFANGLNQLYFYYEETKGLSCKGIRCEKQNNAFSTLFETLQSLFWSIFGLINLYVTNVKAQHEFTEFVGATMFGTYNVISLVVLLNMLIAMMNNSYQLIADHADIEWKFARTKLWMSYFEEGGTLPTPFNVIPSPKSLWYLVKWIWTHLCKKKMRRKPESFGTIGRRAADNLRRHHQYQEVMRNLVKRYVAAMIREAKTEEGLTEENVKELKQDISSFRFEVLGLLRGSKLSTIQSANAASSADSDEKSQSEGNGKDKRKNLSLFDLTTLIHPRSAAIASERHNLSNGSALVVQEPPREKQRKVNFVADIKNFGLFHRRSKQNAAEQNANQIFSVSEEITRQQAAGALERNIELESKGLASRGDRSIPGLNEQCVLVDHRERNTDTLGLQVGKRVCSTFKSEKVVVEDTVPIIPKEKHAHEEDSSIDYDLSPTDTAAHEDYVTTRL

[5] = biological target: T2, Short transient receptor potential channel 4; experiment: mouse TRPC4 channel activators, dose response, cell-based, HEK293 TRPC4/mu-opioid, Fluo-4 calcium (AID 434937); format: functional
[6] = biological target: Cytochrome P450 2C9 (Homo sapiens, UniProt P11712)
Cytochrome P450 2C9, sequence (P11712 whole entry): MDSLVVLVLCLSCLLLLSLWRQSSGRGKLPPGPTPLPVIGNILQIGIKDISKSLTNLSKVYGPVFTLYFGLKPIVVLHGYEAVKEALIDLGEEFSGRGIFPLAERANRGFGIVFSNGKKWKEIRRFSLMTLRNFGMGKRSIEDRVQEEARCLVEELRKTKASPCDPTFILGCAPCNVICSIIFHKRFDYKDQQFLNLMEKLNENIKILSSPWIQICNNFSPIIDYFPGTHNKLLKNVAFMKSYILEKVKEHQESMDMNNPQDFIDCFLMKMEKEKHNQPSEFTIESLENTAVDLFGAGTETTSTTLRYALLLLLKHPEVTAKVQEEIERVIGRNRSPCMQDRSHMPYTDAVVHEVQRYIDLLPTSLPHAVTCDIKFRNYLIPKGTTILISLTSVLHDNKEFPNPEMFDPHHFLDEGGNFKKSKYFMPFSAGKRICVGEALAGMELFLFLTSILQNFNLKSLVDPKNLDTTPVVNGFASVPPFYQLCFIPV

[7] = biological target: T3, Cytochrome P450 1A2 (Homo sapiens, UniProt P05177);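 note: PubChem cytochrome P450 panel assay, CYP1A2 panel member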
T3 sequence (P05177 whole entry): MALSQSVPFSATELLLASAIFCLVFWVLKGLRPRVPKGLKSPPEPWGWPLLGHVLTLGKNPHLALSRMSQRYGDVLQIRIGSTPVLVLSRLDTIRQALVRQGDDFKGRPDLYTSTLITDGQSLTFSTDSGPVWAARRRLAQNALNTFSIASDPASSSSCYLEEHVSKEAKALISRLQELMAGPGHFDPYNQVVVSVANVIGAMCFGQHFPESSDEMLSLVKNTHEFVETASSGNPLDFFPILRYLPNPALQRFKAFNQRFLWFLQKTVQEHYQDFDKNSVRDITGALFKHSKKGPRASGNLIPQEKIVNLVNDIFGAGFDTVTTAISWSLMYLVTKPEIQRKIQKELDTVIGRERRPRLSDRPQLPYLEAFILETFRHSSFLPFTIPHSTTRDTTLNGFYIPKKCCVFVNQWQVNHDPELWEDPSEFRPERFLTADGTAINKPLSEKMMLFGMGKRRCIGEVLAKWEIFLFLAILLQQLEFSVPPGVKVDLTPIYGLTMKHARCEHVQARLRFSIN

[8] = biological target: Cytochrome P450 2C19 (Homo sapiens, UniProt P33261); experiment: Cytochrome panel assay with activity outcomes. Panel member name: p450-cyp2c19 Compounds with AC50 equal or less than 10 uM are considered active; format: functional; conditions: read-out: AC50
Cytochrome P450 2C19, sequence (P33261 whole entry): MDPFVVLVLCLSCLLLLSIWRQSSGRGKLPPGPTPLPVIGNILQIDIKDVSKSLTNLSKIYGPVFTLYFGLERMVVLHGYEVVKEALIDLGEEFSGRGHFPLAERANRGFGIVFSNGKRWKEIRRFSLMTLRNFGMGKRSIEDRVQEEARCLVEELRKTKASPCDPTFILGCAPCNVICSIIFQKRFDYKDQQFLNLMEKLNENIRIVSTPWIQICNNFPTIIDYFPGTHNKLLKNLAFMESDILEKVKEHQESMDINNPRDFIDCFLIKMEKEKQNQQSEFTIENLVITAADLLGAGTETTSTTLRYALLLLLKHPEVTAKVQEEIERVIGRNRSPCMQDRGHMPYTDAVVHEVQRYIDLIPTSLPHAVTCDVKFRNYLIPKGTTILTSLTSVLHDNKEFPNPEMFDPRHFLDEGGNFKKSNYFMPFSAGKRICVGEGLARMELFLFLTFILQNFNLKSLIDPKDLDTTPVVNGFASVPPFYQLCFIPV

[9] = biological target: DNA damage-inducible transcript 3 protein (Mus musculus, UniProt P35639); format: functional, Cricetulus griseus
DNA damage-inducible transcript 3 protein, sequence (P35639 whole entry): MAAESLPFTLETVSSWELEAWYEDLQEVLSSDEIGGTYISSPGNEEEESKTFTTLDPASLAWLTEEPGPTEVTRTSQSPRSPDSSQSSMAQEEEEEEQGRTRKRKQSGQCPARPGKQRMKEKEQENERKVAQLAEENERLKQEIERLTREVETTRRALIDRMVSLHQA

[10] = tested on: Vero; experiment: cells; format: functional; conditions: Chlorocebus sabaeus
[11] = biological target: Protein Wnt-3a (Mus musculus, UniProt P27467); experiment: Wnt3a-driven reporter signaling inhibition, dose response, selectivity assay for Gli-SUFU antagonist project, Wnt-LIGHT cells, luminescence (AID 651570); format: functional; conditions: read-out: IC50_Mean;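 note: Wnt-LIGHT reporter cells stimulated with conditioned medium from Wnt3a-producing cells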
Protein Wnt-3a, sequence (P27467 whole entry): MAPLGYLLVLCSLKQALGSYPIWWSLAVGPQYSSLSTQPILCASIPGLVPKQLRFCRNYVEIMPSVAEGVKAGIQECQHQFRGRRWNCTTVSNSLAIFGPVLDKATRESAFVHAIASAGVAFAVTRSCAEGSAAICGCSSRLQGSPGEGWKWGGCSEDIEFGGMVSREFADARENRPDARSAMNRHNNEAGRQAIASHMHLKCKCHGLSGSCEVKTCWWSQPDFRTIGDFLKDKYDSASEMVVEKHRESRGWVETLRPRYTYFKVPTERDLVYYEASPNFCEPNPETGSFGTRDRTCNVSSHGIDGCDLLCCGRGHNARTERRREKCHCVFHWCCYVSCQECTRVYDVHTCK

[12] = NIH-3T3 fibroblast cytotoxicity, dose response, cytotoxicity control, cell-based, fluorescence, Alamar Blue, secondary assay (AID 2327); format: functional;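 note: NIH-3T3 mouse fibroblasts cultured with fluconazole at 8 µg/mL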
[13] = C. albicans growth with fluconazole, confirmation, fluorescence, retest (AID 2467); format: functional, cell-based
[14] = tested on: INS1; experiment: beta cell apoptosis inhibitors, cytokine rescue, dose response, luminescence, retest (AID 449756); format: functional, cell-based; conditions: Rattus norvegicus;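 note: cell death triggered by IL-1 beta plus TNF-alpha plus IFN-gamma mixture; protective hits raise ATP signal compared with cytokine alone wells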
[15] = biological target: T4, Microphthalmia-associated transcription factor (Homo sapiens, UniProt O75030); experiment: TRPM1 promoter luciferase signal decrease, dose response, MITF inhibitor project, cell-based, SK-MEL-5, cherry-picked, set 3 (AID 493073); format: functional
T4 sequence (O75030 whole entry): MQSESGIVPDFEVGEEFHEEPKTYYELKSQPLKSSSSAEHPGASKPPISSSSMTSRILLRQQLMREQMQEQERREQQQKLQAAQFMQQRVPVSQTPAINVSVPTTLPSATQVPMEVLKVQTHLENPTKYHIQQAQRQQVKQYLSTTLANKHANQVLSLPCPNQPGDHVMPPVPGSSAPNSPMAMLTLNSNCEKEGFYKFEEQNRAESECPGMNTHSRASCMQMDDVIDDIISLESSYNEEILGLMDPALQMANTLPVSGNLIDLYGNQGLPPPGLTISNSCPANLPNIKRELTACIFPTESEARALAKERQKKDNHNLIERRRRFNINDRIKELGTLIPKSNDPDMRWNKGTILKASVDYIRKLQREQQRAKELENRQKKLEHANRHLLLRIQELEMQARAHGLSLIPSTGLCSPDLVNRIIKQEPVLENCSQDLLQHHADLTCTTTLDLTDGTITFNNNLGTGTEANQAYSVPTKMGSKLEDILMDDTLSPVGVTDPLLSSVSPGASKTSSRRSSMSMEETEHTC

[16] = biological target: T5, Carboxy-terminal domain RNA polymerase II polypeptide A small phosphatase 1 (Homo sapiens, UniProt Q9GZU7); experiment: inhibitors of CTDSP1, concentration-response testing, biochemical assay, absorbance-based, actives from ultra-high-throughput screening (AID 540297); format: functional
T5 sequence (Q9GZU7 whole entry): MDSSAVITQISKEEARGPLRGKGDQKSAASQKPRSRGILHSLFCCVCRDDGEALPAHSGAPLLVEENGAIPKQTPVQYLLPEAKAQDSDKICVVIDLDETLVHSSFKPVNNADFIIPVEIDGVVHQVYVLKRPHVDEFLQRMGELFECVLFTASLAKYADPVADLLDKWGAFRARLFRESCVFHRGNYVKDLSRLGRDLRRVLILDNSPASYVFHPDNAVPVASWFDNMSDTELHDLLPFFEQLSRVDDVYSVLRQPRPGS

[17] = biological target: DNA dC->dU-editing enzyme APOBEC-3G (Homo sapiens, UniProt Q9HC16); format: functional;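 note: Dose-response counterscreen measuring inhibition of APOBEC3G DNA deaminase activity, run while confirming APOBEC3A inhibitors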
DNA dC->dU-editing enzyme APOBEC-3G, sequence (Q9HC16 whole entry): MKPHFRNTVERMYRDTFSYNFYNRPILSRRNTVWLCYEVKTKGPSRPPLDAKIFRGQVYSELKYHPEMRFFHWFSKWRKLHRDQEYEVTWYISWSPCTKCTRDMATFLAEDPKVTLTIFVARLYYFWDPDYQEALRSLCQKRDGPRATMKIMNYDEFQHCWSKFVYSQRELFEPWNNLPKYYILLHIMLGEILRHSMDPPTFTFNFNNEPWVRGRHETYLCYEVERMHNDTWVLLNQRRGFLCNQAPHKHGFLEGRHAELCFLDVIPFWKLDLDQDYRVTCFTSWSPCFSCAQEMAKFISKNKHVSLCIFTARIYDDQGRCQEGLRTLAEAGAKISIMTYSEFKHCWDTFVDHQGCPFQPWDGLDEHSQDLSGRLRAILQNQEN

[18] = biological target: DNA dC->dU-editing enzyme APOBEC-3A (Homo sapiens, UniProt P31941); experiment: Dose Response confirmation of small molecule APOBEC3A DNA Deaminase Inhibitors via a fluorescence-based single-stranded DNA deaminase assay. [Related pubchem assays (depositor defined):AID493011, AID493024]; format: functional
DNA dC->dU-editing enzyme APOBEC-3A, sequence (P31941 whole entry): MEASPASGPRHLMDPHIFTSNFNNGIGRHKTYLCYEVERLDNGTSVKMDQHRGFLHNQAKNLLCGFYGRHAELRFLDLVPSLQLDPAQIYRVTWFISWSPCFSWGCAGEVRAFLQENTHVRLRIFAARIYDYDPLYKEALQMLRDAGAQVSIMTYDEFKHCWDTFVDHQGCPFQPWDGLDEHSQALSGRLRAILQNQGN

[19] = biological target: T6, E3 ubiquitin-protein ligase XIAP (Homo sapiens, UniProt P98170); experiment: XIAP antagonists, biochemical, IAP family, fluorescence polarization (AID 1018); format: functional
T6 sequence (P98170 whole entry): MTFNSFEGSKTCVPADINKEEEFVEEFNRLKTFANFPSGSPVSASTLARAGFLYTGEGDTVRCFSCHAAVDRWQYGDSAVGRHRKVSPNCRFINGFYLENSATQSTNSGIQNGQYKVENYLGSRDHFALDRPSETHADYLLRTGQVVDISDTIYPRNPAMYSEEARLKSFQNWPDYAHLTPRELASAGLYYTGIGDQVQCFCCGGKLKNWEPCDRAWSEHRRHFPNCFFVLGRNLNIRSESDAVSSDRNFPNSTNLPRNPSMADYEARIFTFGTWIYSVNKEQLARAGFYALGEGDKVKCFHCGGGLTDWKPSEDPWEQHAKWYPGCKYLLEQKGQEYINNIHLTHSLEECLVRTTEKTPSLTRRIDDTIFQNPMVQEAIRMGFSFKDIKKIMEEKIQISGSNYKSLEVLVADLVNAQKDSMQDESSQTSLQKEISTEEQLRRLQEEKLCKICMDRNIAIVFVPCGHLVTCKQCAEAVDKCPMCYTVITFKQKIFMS

[20] = biological target: T6, E3 ubiquitin-protein ligase XIAP; experiment: Counter Screen using XIAP-Bir3 for Chemical Antagonists of Bir1/2 domains of IAP-family anti-apoptotic proteins. [Related pubchem assays (depositor defined):AID1018, AID1449, AID1514, AID1638, AID1749, AID1750, AID488957, AID488963]
[21] = tested on: HEK293; experiment: cells; format: functional, cell-based; conditions: Homo sapiens
[22] = tested on: HEK293; experiment: NOD2 signaling inhibitors in MDP-stimulated cells, cell-based, uHTS, luminescence (AID 2001); format: functional; conditions: Homo sapiens
[23] = tested on: HEK293; experiment: cells; format: functional, cell-based; conditions: Homo sapiens; remark: listed apart in the source
[24] = tested on: HEK293; experiment: NOD1 signaling inhibitors, primary screen, cell-based, luminescence, uHTS (AID 1578); format: functional; conditions: Homo sapiens
[25] = cytotoxicity toward NIH3T3 fibroblasts, dose response, counter-screen, cell-based, ATP luminescence, mouse fibroblasts (AID 2010); format: functional;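 note: cells exposed to compound for about 90 hours before reading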
[26] = inhibitors of intracellular T. cruzi replication, confirmation, NIH3T3 host cells, beta-gal luminescence (AID 2044); format: functional, cell-based;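 note: intracellular parasites grown in NIH/3T3 mouse fibroblasts as host cells; luminescent beta-galactosidase reporter signal from transgenic T. cruzi replicating inside host cells; inhibitors lower the luminescence signal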

SUMO-activating enzyme, sequence (Q9UBE0 whole entry): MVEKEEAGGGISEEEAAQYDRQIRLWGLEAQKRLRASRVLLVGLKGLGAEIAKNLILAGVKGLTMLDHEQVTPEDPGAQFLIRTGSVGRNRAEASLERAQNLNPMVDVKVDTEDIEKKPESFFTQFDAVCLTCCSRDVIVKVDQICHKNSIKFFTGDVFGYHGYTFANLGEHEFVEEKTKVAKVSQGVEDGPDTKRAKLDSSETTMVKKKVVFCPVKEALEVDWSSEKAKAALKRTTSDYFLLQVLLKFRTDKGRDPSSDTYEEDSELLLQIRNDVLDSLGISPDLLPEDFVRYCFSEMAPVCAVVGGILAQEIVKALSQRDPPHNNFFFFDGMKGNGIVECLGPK
SUMO-activating enzyme, sequence (Q9UBT2 whole entry): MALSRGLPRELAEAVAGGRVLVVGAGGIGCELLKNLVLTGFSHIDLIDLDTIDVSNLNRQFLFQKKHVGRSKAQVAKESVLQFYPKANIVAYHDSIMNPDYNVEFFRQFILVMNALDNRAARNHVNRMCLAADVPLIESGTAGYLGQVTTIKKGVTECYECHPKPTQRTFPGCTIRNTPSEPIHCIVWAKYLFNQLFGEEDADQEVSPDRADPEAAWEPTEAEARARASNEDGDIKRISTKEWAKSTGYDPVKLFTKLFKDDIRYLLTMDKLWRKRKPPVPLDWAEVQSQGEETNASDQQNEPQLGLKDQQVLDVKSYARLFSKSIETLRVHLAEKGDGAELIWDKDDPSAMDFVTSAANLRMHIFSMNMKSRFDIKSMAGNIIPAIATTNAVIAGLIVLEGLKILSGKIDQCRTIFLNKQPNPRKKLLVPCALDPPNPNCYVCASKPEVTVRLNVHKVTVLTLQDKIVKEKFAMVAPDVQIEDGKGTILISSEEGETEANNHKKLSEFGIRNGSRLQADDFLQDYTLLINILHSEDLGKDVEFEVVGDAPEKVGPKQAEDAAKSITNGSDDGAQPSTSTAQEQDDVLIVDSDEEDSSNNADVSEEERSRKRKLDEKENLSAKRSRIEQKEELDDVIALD

In the case of `Nc1c(C(=O)NCc2ccco2)c2nc3ccccc3nc2n1CCc1ccc(F)cc1`, the IC50 [1] was 34.7 µM (active).
For `CCc1cc(=O)oc2c3c(cc(OCC(=O)NCCCCCC(=O)O)c12)OC(C)(C)CC3`, the AC50 [2] was 14 µM (active), the AC50 [3] was 4.32 µM (active) and the IC50 [1] was > 100 µM (inactive).
With `Nc1cc(N2CCNCC2)ccc1[N+](=O)[O-]` the EC50 [4] was 0.19 µM (active) and the EC50 [5] was 1.19 µM (active).
With `C[C@@]12CC[C@@H]3c4ccc(O)cc4CC[C@H]3[C@H]1CC[C@H]2O` the AC50 [6] was “inconclusive” and the AC50 [7] was 5.01 µM (inconclusive).
For `O=C(NNC(=O)c1sc2ccccc2c1Cl)Nc1ccc(Cl)cc1`, the AC50 [6] was “inconclusive”, the IC50 [1] was 25.8 µM (active) and the AC50 [8] was 3.55 µM (inconclusive).
In the case of `O=C(NNC(=O)c1cccc2ccccc12)c1ccc(-c2ccccc2)cc1`, the “Absolute IC50 (CHOP)” value [9] was 10 µM.
In the case of `CCOc1ccc(N2C(=O)/C(=C\NNc3nc(C)cc(C)n3)c3ccccc3C2=O)cc1`, the CC50 [10] was 10.3 µM (active), the IC50 [11] was 11.2 µM (active) and the EC50 [12] was 47.9 µM (active). The EC50 [13] was > 38 µM (not active), the AC50 [14] was 2.24 µM (active) and the AC50 [15] was 3.48 µM (active).
For `CCOc1ccc(OCCCC(=O)N2CCN(S(=O)(=O)c3ccc(Cl)cc3)CC2)cc1`, the IC50 [16] was 6.6 µM (active), the IC50 [17] was 2.23 µM (active) and the IC50 [18] was 2.04 µM (active).
In the case of `Nc1c(NC2CCCCC2)c2ccccc2oc1=O`, the IC50 [19] was > 100 µM (not active) and the IC50 [20] was > 100 µM (inactive).
For `CCN(CC)c1ccc(S(=O)(=O)N2CCOCC2)cc1NC(=O)CSc1cccc[n+]1[O-]`, the IC50 [19] was > 100 µM (not active) and the IC50 [20] was > 100 µM (inactive).
With `Cc1cccc(NC(=O)c2cccc(NS(=O)(=O)c3ccc(Cl)cc3)c2)c1` the IC50 [21] was > 20 µM (inactive), the IC50 [22] was 12.6 µM (inactive) and the IC50 [23] was > 20 µM (inactive). The EC50 [24] was 9.39 µM (active).
For `Cc1ccc(/C=C2\SC(=S)N(CCC(=O)NNS(=O)(=O)c3ccc(C)cc3)C2=O)cc1`, the IC50 [19] was > 100 µM (not active) and the IC50 [20] was > 100 µM (inactive).
With `C[C@@H]1CC2(CCCC[N+]2(C)C)C[C@H]1C` the IC50 [17] was 3.7 µM (active) and the IC50 [18] was 1.61 µM (active).
For `COc1ccccc1-c1nnc(NC(=O)c2ccc(S(=O)(=O)N(C)Cc3ccccc3)cc2)o1`, the “Absolute IC50 (CHOP)” value [9] was 10 µM.
With `Cc1ccc(S(=O)(=O)N2CCC(N3CCN(C)CC3)CC2)cc1Cl` the EC50 [4] was 0.94 µM (active).
With `O=[N+]([O-])c1ccc(/C=N/Nc2nc(N3CCCCC3)nc(N3CCCCC3)n2)o1` the EC50 [25] was > 60 µM (inconclusive), the EC50 [4] was 5.96 µM (active) and the EC50 [26] was 0.225 µM (active).
